# Experiments:
# Canis familiaris [1] = assay: Time taken for increase in coronary blood flow in anesthetized dogs after intravenous administration at 0.1 mg/kg; assay type: functional, Canis lupus familiaris, Blood/Heart
# Canis familiaris [2] = assay: Time taken for increase in coronary blood flow in anesthetized dogs after intravenous administration at 0.3 mg/kg; assay type: functional, Canis lupus familiaris, Blood/Heart
# Canis familiaris [3] = assay: Time taken for increase in coronary blood flow in anesthetized dogs after intravenous administration at 1 mg/kg; assay type: functional, Canis lupus familiaris, Blood/Heart
# Canis familiaris [4] = assay: Percent increase in coronary blood flow in anesthetized dogs after intravenous administration at 0.3 mg/kg; assay type: functional, Canis lupus familiaris, Artery
# Canis familiaris [5] = assay: Percent increase in coronary blood flow in anesthetized dogs after intravenous administration at 1 mg/kg (p<0.05); assay type: functional, Canis lupus familiaris, Artery
# Canis familiaris [6] = assay: Percent increase in coronary blood flow in anesthetized dogs after intravenous administration at 0.1 mg/kg; assay type: functional, Canis lupus familiaris, Artery
# Canis familiaris [7] = assay: Increase in coronary blood flow in anesthetized dogs was measured relative to trapidil (1 mg/kg) after intravenous administration of 0.1 mg/kg; assay type: functional, Canis lupus familiaris, Artery
# Canis familiaris [8] = assay: Increase in coronary blood flow in anesthetized dogs was measured relative to trapidil (1 mg/kg) after intravenous administration of 0.3 mg/kg; assay type: functional, Canis lupus familiaris, Artery
# Canis familiaris [9] = assay: Increase in coronary blood flow in anesthetized dogs was measured relative to trapidil (1 mg/kg) after intravenous administration of 1 mg/kg; assay type: functional, Canis lupus familiaris, Artery
# Canis familiaris [10] = assay: Maximum percent decrease in mean blood pressure in anesthetized dogs after intravenous administration at 0.3 mg/kg; assay type: functional, Canis lupus familiaris
# Canis familiaris [11] = assay: Maximum percent decrease in mean blood pressure in anesthetized dogs after intravenous administration at 1 mg/kg; assay type: functional, Canis lupus familiaris
# Cavia porcellus [12] = species: Cavia porcellus; assay: Integrated vasodilating potency (IVP) (the product of compound-induced maximum percent decrease in the perfusion pressure and the duration of the effect in minutes at 100 ug (ia)); assay type: functional
# Rattus norvegicus = assay: Hypotensive index (HI) measured as the area under the time-hypotensive response curve for 6-h period at 30 mg/kg, po; assay type: functional
# Canis familiaris [13] = assay: Maximum percent decrease in mean blood pressure in anesthetized dogs after intravenous administration at 0.1 mg/kg; assay type: functional, Canis lupus familiaris
# Cavia porcellus [14] = species: Cavia porcellus; assay: Integrated vasodilating potency (the product of compound-induced maximum percent decrease in the perfusion pressure and the duration of the effect in minutes at 100 ug (ia); Coronary vasoconstricting action); assay type: functional
# Cavia porcellus [15] = species: Cavia porcellus; assay: Integrated vasodilating potency is the product of compound-induced maximum percent decrease in the perfusion pressure and the duration of the effect in minutes at 100 ug (ia); assay type: functional
Compound,HI (Rattus norvegicus),IVP (Cavia porcellus [14]),other results
Cc1nc2ncnn2c2c1CCN2C(C)(C)C [BUMEPIDIL],181,,Duration (Canis familiaris [1]): 4.3 min; Duration (Canis familiaris [2]): 9.3 min; Duration (Canis familiaris [3]): 10.6 min; Max (Canis familiaris [4]): 132.3%; Max (Canis familiaris [5]): 219.8%; Max (Canis familiaris [6]): 34.7%; Relative potency (Canis familiaris [7]): 0.7; Relative potency (Canis familiaris [8]): 3.8; Relative potency (Canis familiaris [9]): 8.4; Decrease (Canis familiaris [10]): -11.7%; Decrease (Canis familiaris [11]): -32.3%; IVP (Cavia porcellus [12]): 815; Decrease (Canis familiaris [13]): -3.3%
Cc1nc2nc(-c3ccc(Cl)cc3)nn2c2c1CCN2C(C)C,0,Coronary vasoconstricting action,
Cc1nc2nc(-c3ccccc3)nn2c2c1CCN2C(C)(C)C,0,Coronary vasoconstricting action,
Cc1nc2nc(-c3ccccc3)nn2c2c1CCN2C(C)C,0,Coronary vasoconstricting action,
Cc1nc2nc(-c3ccccc3)nn2c2c1CCN2Cc1ccccc1F,8,Coronary vasoconstricting action,
CCCCCCCN1CCc2c(C)nc3ncnn3c21,30,,IVP (Cavia porcellus [15]): 184
Cc1nc2ncnn2c2c1CCN2C1CCCCCCC1,15,Coronary vasoconstricting action,
COc1cc(-c2nc3nc(C)c4c(n3n2)N(Cc2ccccc2Cl)CC4)cc(OC)c1OC,0,Coronary vasoconstricting action,
Cc1nc2nc(-c3ccc(Cl)cc3)nn2c2c1CCN2CCCN1CCCC1,0,Coronary vasoconstricting action,
